According to patent publication US9089499B2, “Para-coumaric acid or para-hydroxycinnamic acid derivatives and their use in cosmetic or dermatological compositions” (BASF Beauty Care Solutions France S.A.S., priority 2005, dated 2015):
Where two headings read alike, the source gives them in different places.

Columns and labels:
fungal tyrosinase = assay: In vitro test of inhibition of isolated fungal tyrosinase (L-dopa, dopachrome OD 490 nm); type: biochemical; conditions: 490 nm
Source text: Tyrosinase catalyses the formation of L-dopaquinone and then of dopachrome from L-dopa. Now, dopachrome is a coloured compound that may be quantified by visible spectrophotometry at 490 nm. The use of an active agent capable of modifying the enzymatic activity will be reflected by a variation in the optical density at 490 nm. The to ratio of the rates of formation of dopachrome makes it possible to determine precisely the activations or inhibitions obtained with the various test molecules.
The sample to be tested is incubated in the presence of fungal tyrosinase (Sigma), for 5 minutes with stirring. L-Dopa (Sigma), a tyrosinase substrate, is incubated for 10 minutes in the absence of light, in the presence or absence of the test molecules. The calculation of the percentage of inhibition is performed by relating the test OD to the OD of the negative control without molecule.
In the context of this in vitro test, the p-coumaric acid derivatives were tested at final concentrations of 10^−4M and 10^−5M.

Human tyrosinase [1] = biological target: T1, Human tyrosinase (Homo sapiens, UniProt P14679); assay: In vitro test of inhibition of human tyrosinase from melanocyte extracts (L-dopa/MBTH, OD 490 nm); type: biochemical; conditions: melanocyte extract; for inhibition at 100 µM: 10^−4M, read-out: Inhibition of human tyrosinase, percentage of inhibition, Mean 10^−4M; for inhibition at 10 µM: 10^−5M, read-out: Inhibition of human tyrosinase, percentage of inhibition, Mean 10^−5M
T1 construct: endogenous in cells; host or cells: normal human melanocytes (abdominal surgery; several donors of fair, brown and black phototypes)
T1 sequence (P14679 19-529): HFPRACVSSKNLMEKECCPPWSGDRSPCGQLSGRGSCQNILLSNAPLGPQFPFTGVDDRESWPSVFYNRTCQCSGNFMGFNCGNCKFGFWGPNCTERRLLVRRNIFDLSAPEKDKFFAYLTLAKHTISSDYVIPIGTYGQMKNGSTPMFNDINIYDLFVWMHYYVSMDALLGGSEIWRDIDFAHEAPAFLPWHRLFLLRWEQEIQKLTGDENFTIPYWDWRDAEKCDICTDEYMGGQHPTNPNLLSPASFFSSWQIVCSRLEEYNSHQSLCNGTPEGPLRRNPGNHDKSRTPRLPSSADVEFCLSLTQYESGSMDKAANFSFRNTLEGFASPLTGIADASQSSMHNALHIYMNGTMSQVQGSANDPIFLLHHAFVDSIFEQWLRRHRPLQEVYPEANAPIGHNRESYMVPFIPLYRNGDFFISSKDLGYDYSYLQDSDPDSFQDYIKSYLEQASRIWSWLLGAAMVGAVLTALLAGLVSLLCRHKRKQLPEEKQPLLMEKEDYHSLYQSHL
Procedure: Human tyrosinase, obtained from melanocyte extracts obtained from healthy donors, catalyses the formation of L-dopaquinone from L-dopa. Now, the L-dopaquinone may be quantified by visible spectrophotometry at 490 nm by means of a chromogen: 3-methyl-2-benzothiazolinone hydrazone (MBTH).
The melanocyte extract is obtained after lysis of cell membranes of the normal human melanocytes, performed via a thermal shock. The supernatant is recovered and then incubated with MBTH (Sigma) and L-dopa (Sigma). […]

Human tyrosinase [2] = biological target: T1, Human tyrosinase; assay: Inhibition of human tyrosinase after 24 h application to normal human melanocytes in monolayer; type: cell-based; conditions: for inhibition at 1000 µM: 10^−3 M
Procedure: Normal human melanocytes (obtained from abdominal surgery) are seeded in 24-well plates at a rate of 80 000 cells per well. They are cultured to confluence and the active agents are applied for 24 hours to the culture media. After 24 hours, the media are removed and the melanocytes are detached via mechanical action. An extraction is performed via a thermal shock and the supernatants are then recovered and incubated with MBTH (Sigma) and L-dopa (Sigma). The OD at 490 nm is measured after 30 minutes, and the tyrosinase inhibition is calculated by relating the OD at 490 nm to the protein content (measured in each culture well) of the test relative to the ratio: OD 490 nm/protein concentration of the negative control (untreated control).
The compounds derived from the examples mentioned above were tested on melanocytes derived from various donors but of fair phototype, according to the protocol described in Example 29. The donors tested are as follows: • donor S (donor tested in Example 12): • donor 1: • donor 2: • donor 3
The compound derived from Example 1 is tested on cultures of melanocytes obtained from 2 donors of brown phototype and from one donor of black phototype. The protocol applied is that described in Example 29. […]

normal human melanocytes = assay: Cytotoxicity on normal human melanocytes, PNPP assay; type: cell-based; conditions: 24 hours, relative to untreated wells
Procedure: The cytotoxicity of the active agents is studied on normal human melanocytes in 24-well plates, via assay with PNPP (P-nitrophenyl phosphate), this substance being converted into p-nitrophenol via the intracellular acid phosphatases of viable cells. The absorbance of p-nitrophenol at 405 nm is directly proportional to the number of viable cells.
The active agents are tested at 2 different concentrations (10^−4 M and 10^−5 M) and added to the culture medium and incubated at 37° C. for 24 hours. The assay with PNPP is performed on the cell lawn and the results are expressed as a percentage of viability relative to the negative control (untreated wells).

[3] = Antiradical activity, acellular DPPH model; conditions: DPPH 30 minutes, absorbance 520 nm
Procedure: The antiradical activity of the derivatives derived from the syntheses described above was evaluated in an in vitro acellular model using DPPH.
1,1-Diphenyl 2-picryihydrazyl, on account of its paramagnetic structure, can accept an electron or a hydrogen radical to become a stable diamagnetic molecule. This free radical, which is purple coloured in ethanol, has a strong absorption band at 520 nm.
The addition of a compound that provides electrons results in a decolorization of the 1,1-diphenyl 2-picrylhydrazyl that is proportional to the number of electrons taken up by the radical, which may be monitored by measuring the absorbance at 520 nm.
DPPH is incubated for 30 minutes in the presence of the derivatives described above, tested at a concentration of 10^−5M, or alone for the control. At the end of the incubation, the antiradical activity of the above derivatives is evaluated by measuring the absorbance of the solution at 520 nm.
The antiradical activity of each test product is calculated according to the formula, as a percentage: 100−((OD520 in the presence of the test compound/OD520 in the absence of compound)×100)

[4] = 10^−4M, 24 hours, read-out: Inhibition of human tyrosinase after application to normal human melanocytes, percentage of inhibition, Mean 10^−4M
[5] = 10^−5M, 24 hours, read-out: Inhibition of human tyrosinase after application to normal human melanocytes, percentage of inhibition, Mean 10^−5M
[6] = B103, Donor B, brown phototype, read-out: Inhibition of tyrosinase, Mean Donor B, 10^−3 M
[7] = B104, Donor B, brown phototype, 10^−4 M, read-out: Inhibition of tyrosinase, Mean Donor B, 10^−4 M
[8] = Donor 1, fair phototype, 10^−4 M, read-out: Inhibition of tyrosinase, Mean 10^−4 M, Donor 1
[9] = Donor 1, fair phototype, 10^−5 M, read-out: Inhibition of tyrosinase, Mean 10^−5 M, Donor 1
[10] = Donor 2, fair phototype, 10^−4 M, read-out: Inhibition of tyrosinase, Mean 10^−4 M, Donor 2
[11] = Donor 2, fair phototype, 10^−5 M, read-out: Inhibition of tyrosinase, Mean 10^−5 M, Donor 2
[12] = Donor 3, fair phototype, 10^−4 M, read-out: Inhibition of tyrosinase, Mean 10^−4 M, Donor 3
[13] = Donor 3, fair phototype, 10^−5 M, read-out: Inhibition of tyrosinase, Mean 10^−5 M, Donor 3
[14] = Donor A, brown phototype, read-out: Inhibition of tyrosinase, Mean Donor A, 10^−3 M
[15] = Donor A, brown phototype, 10^−4 M, read-out: Inhibition of tyrosinase, Mean Donor A, 10^−4 M
[16] = Donor A, brown phototype, 10^−5 M, read-out: Inhibition of tyrosinase, Mean Donor A, 10^−5 M
[17] = Donor B, brown phototype, 10^−5 M, read-out: Inhibition of tyrosinase, Mean Donor B, 10^−5 M
[18] = Donor S, fair phototype, 10^−4 M, read-out: Inhibition of tyrosinase, Mean 10^−4 M, Donor S
[19] = Donor S, fair phototype, 10^−5 M, read-out: Inhibition of tyrosinase, Mean 10^−5 M, Donor S
[20] = donor of black phototype, 10^−4 M, read-out: Inhibition, Mean Negroid skin, 10^−4 M
[21] = donor of black phototype, 10^−5 M, read-out: Inhibition, Mean Negroid skin, 10^−5 M

| SMILES | Inhibition of fungal tyrosinase, percentage of inhibition, Mean 10^−4M (fungal tyrosinase) [%] | Inhibition of fungal tyrosinase, percentage of inhibition, Mean 10^−5M (fungal tyrosinase) [%] | inhibition at 100 µM (Human tyrosinase [1]) [%] | inhibition at 10 µM (Human tyrosinase [1]) [%] | inhibition at 100 µM (Human tyrosinase [2]; [4]) [%] | inhibition at 10 µM (Human tyrosinase [2]; [5]) [%] | inhibition at 1000 µM (Human tyrosinase [2]; [6]) [%] | inhibition at 100 µM (Human tyrosinase [2]; [7]) [%] | inhibition at 100 µM (Human tyrosinase [2]; [8]) [%] | inhibition at 10 µM (Human tyrosinase [2]; [9]) [%] | inhibition at 100 µM (Human tyrosinase [2]; [10]) [%] | inhibition at 10 µM (Human tyrosinase [2]; [11]) [%] | inhibition at 100 µM (Human tyrosinase [2]; [12]) [%] | inhibition at 10 µM (Human tyrosinase [2]; [13]) [%] | inhibition at 1000 µM (Human tyrosinase [2]; [14]) [%] | inhibition at 100 µM (Human tyrosinase [2]; [18]) [%] | inhibition at 10 µM (Human tyrosinase [2]; [19]) [%] | Percentages of viability, Mean 10^−4 M (normal human melanocytes) [%] | Percentages of viability, Mean 10^−5 M (normal human melanocytes) [%] | Antiradical activity, Mean 10^−5 M [3] [%] | other results |
| --- | --- | --- | --- | --- | --- | --- | --- | --- | --- | --- | --- | --- | --- | --- | --- | --- | --- | --- | --- | --- | --- |
| COc1cc(/C=C/C(=O)NCCc2ccc(O)cc2)ccc1O [Example 3, N-trans-feruloyltyramine] | 29.41 | 10.16 | 0 | 7.56 | 49.6 | 33.1 | 87.4 | 30.5 | 44.8 | 0 | 10.7 | 0 | 57.9 | 42.5 | 85.6 | 49.6 | 33.1 | 102.55 | 111.54 | 13.73 | inhibition at 100 µM (Human tyrosinase [2]; [15]): 40.4%; inhibition at 10 µM (Human tyrosinase [2]; [16]): 15.6%; inhibition at 10 µM (Human tyrosinase [2]; [17]): 16.7%; inhibition at 100 µM (Human tyrosinase [2]; [20]): 44.5%; inhibition at 10 µM (Human tyrosinase [2]; [21]): 21.9% |
| COc1cc(/C=C/C(=O)NCc2ccc(O)c(OC)c2)ccc1O [Example 4, N-trans-feruloyl-4-hydroxy-3-methoxyphenylmethylamine] | 1.35 | 0 | 6.42 | 4.92 | 39.8 | 15.8 | – | – | – | – | – | – | – | – | – | – | – | 101.94 | 99.55 | 15.72 | – |
| O=C(/C=C/c1ccc(O)c(O)c1)NCCc1ccc(O)cc1 [Example 9, N-trans-caffeoyltyramine] | 27.42 | 13.06 | 22.1 | 11.9 | 100 | 24.6 | 94.5 | 44.4 | 65.3 | 0 | 61.5 | 0 | 70.7 | 22.2 | 98.9 | 100 | 24.6 | 77.9 | 94.96 | 41.17 | inhibition at 100 µM (Human tyrosinase [2]; [15]): 44.6%; inhibition at 10 µM (Human tyrosinase [2]; [16]): 21.3%; inhibition at 10 µM (Human tyrosinase [2]; [17]): 18.9%; inhibition at 100 µM (Human tyrosinase [2]; [20]): 49.3%; inhibition at 10 µM (Human tyrosinase [2]; [21]): 16% |
| O=C(/C=C/c1ccc(O)c(O)c1)NCCc1ccc(O)c(O)c1 [Example 10, N-trans-caffeoyldopamine] | 16.23 | 14.72 | 9.91 | 11.4 | 66.8 | 0 | – | – | 44.6 | 0 | 0 | 0.15 | 14.4 | 3.32 | – | 66.8 | 0 | 84.62 | 102.1 | 57.45 | – |
| COc1cc(CNC(=O)/C=C/c2ccc(O)c(O)c2)ccc1O [Example 11, N-trans-caffeoyl-4-hydroxy-3-methoxyphenylmethylamine] | 12.03 | 3.7 | 0 | 8.68 | – | 28 | – | – | – | – | – | – | – | – | – | – | – | – | 116.99 | 59.2 | – |
